According to US20070154405A1, “AEROSOL APPARATUS CONTAINING A COMPOSITION FOR APPLYING SIMULTANEOUSLY SEVERAL TOPICAL STIMULI” (priority 2005, published 2007):
Where “and” joins values, the source holds several entries; their conditions need not be identical. Equal entries are not always repeated.

Key:
[1] = tested on: Itching (Atopic Dermatitis); experiment: Clinical Study 2: itching by patient VAS in atopic dermatitis patients; assay type: in vivo, human
Text: 125 Patients took part in a comparative, randomized, single (observer) blind, controlled clinical study. […] The age difference for both groups of males and females was statistically insignificant t=0.551, P=0.582 and t=1.307, P=0.194 respectively. […] The similar distribution allowed for a matching analysis with no statistical difference where Chi-square test=0.001, P=0.976. Due to the subjective nature of this symptom, all the patients were given VAS (Visual analogue scale graded 0=no itch to 10=severe itch) to complete at home twice daily, once in the morning and once in the evening, on the fifth, sixth and seventh day, after allowing for a washout period of four days. Table IX clarify the mean VAS score in both groups after treatment with their respective intervention. The N1 group has experienced a significant decline in their VAS score throughout the 5th, 6th and 7th days where paired t test for the decline in the 5th day=6.96, P=0.001 and for the 6th day=6.74, P=0.001 and for the 7th day=2.76, p=0.006.

Atopic Dermatitis = experiment: Clinical Study 2: randomized single blind comparison of N1 and Hydrocortisone 1% in atopic dermatitis, SASSAD severity score; assay type: in vivo, human
Text: The patients taking part in the clinical studies were given free kits of the aerosol apparatus of the present invention and a set of instructions detailing method of use as follows: 1) Remove clothing of the area of application. 2) If the face needs to be treated, the eyes should be closed or masked (for babies or small children) 3) Hold the apparatus at a distance of 10 cm-20 cm approximately. 4) Press the apparatus's actuator to release the water-based particles. 5) Apply for a few seconds or as needed then leave the treated areas to dry untouched. Repeat as many times as needed until the symptoms ease. 6) In chronic cases and in order to speed the healing process, apply a daily regimen of four times per day, once before bedtime until symptoms reduce or disappear.
125 Patients took part in a comparative, randomized, single (observer) blind, controlled clinical study.
The scoring system used to evaluate the results of both groups is “Six area, six sign atopic dermatitis (SASSAD) severity score [Jones J B. Six area, six sign atopic dermatitis (SASSAD) severity score: A simple system for monitoring disease activity in atopic dermatitis. Br J Dermatol. 1996; 135 (Suppl 48): 25-30] […] The signs are: Dryness, lichenification, cracking, erythema, exudation and excoriation. the six areas of the body are head, neck, trunk, arms, hands, legs and feet. The severity of the lesions are assessed as 0, 1, 2 and 3 for no lesion, mild, moderate and severe lesions respectively for each sign in each body area resulting in a score of maximum 18 for each sign. The six signs were evaluated objectively by the investigating physicians. Itching being a subjective symptom was evaluated by the patient.
The atopic dermatitis diagnosis was based on [Hanifin J. M., Rajka G. Diagnostic Features of Atopic Dermatitis, Acta Derma (Stock) Suppl. 92:44-47, 1980].

[2] = Base score, listed as hydrocortisone
[3] = Week 1, listed as hydrocortisone

With `C[C@]12CCC(=O)C=C1CC[C@@H]1[C@@H]2[C@@H](O)C[C@@]2(C)[C@H]1CC[C@]2(O)C(=O)CO` [Hydrocortisone] the “itch free duration, mean” value ([1]; 3 day self-monitoring period) was 1.76 ± 1.21 h, the “Mean itch VAS (0=no itch to 10=severe itch)” value ([1]; Day 5 Evening) was 7.69 and the “Mean itch VAS (0=no itch to 10=severe itch)” value ([1]; Day 5 Morning) was 8.01. The “Mean itch VAS (0=no itch to 10=severe itch)” value ([1]; Day 5 Morning, listed as hydrocortisone) was 8.01±1.65, the “Mean itch VAS (0=no itch to 10=severe itch)” value ([1]; Day 6 Evening) was 7.06 and the “Mean itch VAS (0=no itch to 10=severe itch)” value ([1]; Day 6 Morning) was 7.17. The “Mean itch VAS (0=no itch to 10=severe itch)” value ([1]; Day 7 Evening) was 6.58, the “Mean itch VAS (0=no itch to 10=severe itch)” value ([1]; Day 7 Evening, listed as hydrocortisone) was 6.58±1.97 and the “Mean itch VAS (0=no itch to 10=severe itch)” value ([1]; Day 7 Morning) was 6.63. For the same molecule, the “Mean itch VAS (0=no itch to 10=severe itch)” value ([1]; Day 7 Morning, listed as hydrocortisone) was 6.63±1.93, the “Mean Cracking score” value (Atopic Dermatitis; Base score) was 1.17 and the “Mean Dryness score” value (Atopic Dermatitis; Base score) was 4.32. For the same molecule, the “Mean Erythema score” value (Atopic Dermatitis; Base score) was 3.6, the “Mean Excoriation score” value (Atopic Dermatitis; Base score) was 2.7 and the “Mean Exudation score” value (Atopic Dermatitis; Base score) was 3.18. For the same molecule, the “Mean Lichenification score” value (Atopic Dermatitis; Base score) was 2.44, the “Mean Erythema score” value (Atopic Dermatitis; [2]) was 3.6±2.5 and the “Mean Lichenification score” value (Atopic Dermatitis; [2]) was 2.44±1.7. The “Mean Dryness score” value (Atopic Dermatitis; Week 1) was 2.9, the “Mean Erythema score” value (Atopic Dermatitis; Week 1) was 2.9 and the “Mean Excoriation score” value (Atopic Dermatitis; Week 1) was 1.97. For the same molecule, the “Mean Exudation score” value (Atopic Dermatitis; Week 1) was 2.5, the “Mean Lichenification score” value (Atopic Dermatitis; Week 1) was 1.55 and the “Mean Exudation score” value (Atopic Dermatitis; [3]) was 2.5±2.4. For the same molecule, the “Mean Lichenification score” value (Atopic Dermatitis; [3]) was 1.55±1.9, the “Mean Dryness score” value (Atopic Dermatitis; Week 2) was 2.13 and the “Mean Erythema score” value (Atopic Dermatitis; Week 2) was 1.8. For the same molecule, the “Mean Excoriation score” value (Atopic Dermatitis; Week 2) was 1.6, the “Mean Lichenification score” value (Atopic Dermatitis; Week 2) was “.82” and the “Mean Lichenification score” value (Atopic Dermatitis; Week 2, listed as hydrocortisone) was 0.82±1.3. For the same molecule, the “group cleared of atopic dermatitis (SASSAD score of 0 or 1)” value (Atopic Dermatitis; after Week One) was 14%, the “group cleared of Atopic dermatitis” value (Atopic Dermatitis; after two weeks treatment, total) was 11% and the “patients cleared from atopic dermatitis (SASSAD score=0)” value (Atopic Dermatitis; after week one) was 9 patients. For the same molecule, the “patients cleared from atopic dermatitis (SASSAD score=0), percent of group” value (Atopic Dermatitis; after week one) was 3.81%, the “Mean SASSAD score” value (Atopic Dermatitis; at baseline, before treatment) was 17.51±7.37 and 17.52 and 17.5 and the “Mean SASSAD score” value (Atopic Dermatitis; at baseline, before treatment, listed as hydrocortisone) was 17.52±7.37. The “group cleared of atopic dermatitis (SASSAD score of 0 or 1)” value (Atopic Dermatitis; at the end of Week Two) was 6.3%, the “Mean SASSAD score” value (Atopic Dermatitis; end of week one) was 12.82±8.34 and 12.52±8.34 and 12.82 and 12.5 and the “Mean SASSAD score” value (Atopic Dermatitis; end of week two, patients who continued treatment) was 8.4±6 and 8.4. The “Mean SASSAD score” value (Atopic Dermatitis; end of week two, patients who continued treatment, listed as hydrocortisone) was 8.4±6.
